Results taken from ChEMBL document CHEMBL4330058, “Discovery of novel anti-angiogenesis agents. Part 10: Multi-target inhibitors of VEGFR-2, Tie-2 and EphB4 incorporated with 1,2,3-triazol” (Eur J Med Chem, 2019).

What was measured:
EA.hy 926 = experiment: Anti-angiogenic activity against human EAhy926 after 24 hrs by CCK-8 assay; type: functional, cell-based; details: EA.hy 926, 24 h
Angiopoietin-1 receptor = Angiopoietin-1 receptor (Homo sapiens, UniProt Q02763); experiment: Inhibition of TIE2 (unknown origin) after 4 hrs by ADP-Glo reagent based luminescent assay
Sequence of Angiopoietin-1 receptor (Q02763 whole entry): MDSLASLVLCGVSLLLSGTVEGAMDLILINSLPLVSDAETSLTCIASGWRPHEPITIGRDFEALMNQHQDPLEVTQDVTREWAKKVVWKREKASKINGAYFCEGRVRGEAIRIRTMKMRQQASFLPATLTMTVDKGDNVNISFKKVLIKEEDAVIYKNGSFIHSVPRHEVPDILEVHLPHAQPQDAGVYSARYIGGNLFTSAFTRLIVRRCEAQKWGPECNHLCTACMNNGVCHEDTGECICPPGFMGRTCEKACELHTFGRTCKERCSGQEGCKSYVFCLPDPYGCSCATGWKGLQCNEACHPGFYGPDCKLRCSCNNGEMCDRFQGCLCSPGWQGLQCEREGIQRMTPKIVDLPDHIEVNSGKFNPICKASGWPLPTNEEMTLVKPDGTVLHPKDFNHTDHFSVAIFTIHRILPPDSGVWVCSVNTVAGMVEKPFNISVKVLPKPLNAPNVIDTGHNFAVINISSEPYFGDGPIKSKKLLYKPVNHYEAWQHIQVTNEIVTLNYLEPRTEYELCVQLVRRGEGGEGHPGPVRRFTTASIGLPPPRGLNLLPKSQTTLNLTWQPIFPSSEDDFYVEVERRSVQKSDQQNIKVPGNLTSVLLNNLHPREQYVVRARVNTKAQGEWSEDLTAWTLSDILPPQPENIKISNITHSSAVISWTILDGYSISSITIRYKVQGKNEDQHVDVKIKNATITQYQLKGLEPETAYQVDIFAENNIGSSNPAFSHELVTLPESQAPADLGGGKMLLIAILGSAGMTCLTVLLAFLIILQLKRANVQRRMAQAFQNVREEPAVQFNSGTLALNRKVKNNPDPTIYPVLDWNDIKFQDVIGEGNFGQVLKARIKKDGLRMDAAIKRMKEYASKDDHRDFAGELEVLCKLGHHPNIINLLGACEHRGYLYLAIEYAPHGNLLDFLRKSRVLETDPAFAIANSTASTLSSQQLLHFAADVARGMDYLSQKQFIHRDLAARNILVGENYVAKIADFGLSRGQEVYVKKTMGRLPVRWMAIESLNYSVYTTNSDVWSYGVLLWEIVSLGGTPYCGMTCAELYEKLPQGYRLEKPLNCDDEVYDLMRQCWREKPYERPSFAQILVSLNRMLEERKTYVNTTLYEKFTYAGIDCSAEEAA

Ephrin type-B receptor 4 = target: T1, Ephrin type-B receptor 4 (Homo sapiens, UniProt P54760); experiment: Inhibition of EPHB4 (unknown origin) after 4 hrs by ADP-Glo reagent based luminescent assay
T1 sequence (P54760 whole entry): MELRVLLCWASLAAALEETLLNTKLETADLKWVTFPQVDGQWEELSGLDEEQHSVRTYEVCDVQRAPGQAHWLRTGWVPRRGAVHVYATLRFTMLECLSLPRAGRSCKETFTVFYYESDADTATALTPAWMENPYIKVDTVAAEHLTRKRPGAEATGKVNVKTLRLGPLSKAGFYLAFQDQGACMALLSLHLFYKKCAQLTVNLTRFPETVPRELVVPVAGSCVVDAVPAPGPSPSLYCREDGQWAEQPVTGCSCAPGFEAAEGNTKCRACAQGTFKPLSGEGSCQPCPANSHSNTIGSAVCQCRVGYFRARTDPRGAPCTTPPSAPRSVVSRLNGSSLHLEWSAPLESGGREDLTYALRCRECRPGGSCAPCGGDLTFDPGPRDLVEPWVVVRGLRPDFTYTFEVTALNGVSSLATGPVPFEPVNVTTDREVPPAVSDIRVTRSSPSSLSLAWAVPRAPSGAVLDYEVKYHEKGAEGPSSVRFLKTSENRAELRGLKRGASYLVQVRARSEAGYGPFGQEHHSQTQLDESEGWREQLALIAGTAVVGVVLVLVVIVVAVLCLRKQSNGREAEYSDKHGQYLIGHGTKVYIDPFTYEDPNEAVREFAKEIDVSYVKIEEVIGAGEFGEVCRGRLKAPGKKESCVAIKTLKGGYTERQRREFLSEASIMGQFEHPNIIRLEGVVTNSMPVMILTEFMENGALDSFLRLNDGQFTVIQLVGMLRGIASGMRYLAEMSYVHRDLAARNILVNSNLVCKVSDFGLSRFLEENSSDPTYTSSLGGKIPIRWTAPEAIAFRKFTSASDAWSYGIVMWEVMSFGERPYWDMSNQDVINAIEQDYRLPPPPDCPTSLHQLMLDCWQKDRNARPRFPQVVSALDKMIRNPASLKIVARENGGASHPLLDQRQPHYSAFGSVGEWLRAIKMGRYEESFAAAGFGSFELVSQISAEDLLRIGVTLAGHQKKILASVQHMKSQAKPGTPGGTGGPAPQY

A549 = experiment: Antiproliferative activity against human A549 cells
MCF7 = experiment: Antiproliferative activity against human MCF7 cells
SMMC-7721 = experiment: Antiproliferative activity against human SMMC7721 cells
PANC-1 = experiment: Antiproliferative activity against human PANC1 cells
A-431 = experiment: Antiproliferative activity against human A431 cells
HeLa = experiment: Antiproliferative activity against human HeLa cells
LoVo = experiment: Antiproliferative activity against human LoVo cells
[1] = target: Vascular endothelial growth factor receptor 2 (Homo sapiens, UniProt P35968); experiment: Inhibition of VEGFR2 (unknown origin) after 1 hr by ADP-Glo reagent based luminescent assay
Sequence of Vascular endothelial growth factor receptor 2 (P35968 whole entry): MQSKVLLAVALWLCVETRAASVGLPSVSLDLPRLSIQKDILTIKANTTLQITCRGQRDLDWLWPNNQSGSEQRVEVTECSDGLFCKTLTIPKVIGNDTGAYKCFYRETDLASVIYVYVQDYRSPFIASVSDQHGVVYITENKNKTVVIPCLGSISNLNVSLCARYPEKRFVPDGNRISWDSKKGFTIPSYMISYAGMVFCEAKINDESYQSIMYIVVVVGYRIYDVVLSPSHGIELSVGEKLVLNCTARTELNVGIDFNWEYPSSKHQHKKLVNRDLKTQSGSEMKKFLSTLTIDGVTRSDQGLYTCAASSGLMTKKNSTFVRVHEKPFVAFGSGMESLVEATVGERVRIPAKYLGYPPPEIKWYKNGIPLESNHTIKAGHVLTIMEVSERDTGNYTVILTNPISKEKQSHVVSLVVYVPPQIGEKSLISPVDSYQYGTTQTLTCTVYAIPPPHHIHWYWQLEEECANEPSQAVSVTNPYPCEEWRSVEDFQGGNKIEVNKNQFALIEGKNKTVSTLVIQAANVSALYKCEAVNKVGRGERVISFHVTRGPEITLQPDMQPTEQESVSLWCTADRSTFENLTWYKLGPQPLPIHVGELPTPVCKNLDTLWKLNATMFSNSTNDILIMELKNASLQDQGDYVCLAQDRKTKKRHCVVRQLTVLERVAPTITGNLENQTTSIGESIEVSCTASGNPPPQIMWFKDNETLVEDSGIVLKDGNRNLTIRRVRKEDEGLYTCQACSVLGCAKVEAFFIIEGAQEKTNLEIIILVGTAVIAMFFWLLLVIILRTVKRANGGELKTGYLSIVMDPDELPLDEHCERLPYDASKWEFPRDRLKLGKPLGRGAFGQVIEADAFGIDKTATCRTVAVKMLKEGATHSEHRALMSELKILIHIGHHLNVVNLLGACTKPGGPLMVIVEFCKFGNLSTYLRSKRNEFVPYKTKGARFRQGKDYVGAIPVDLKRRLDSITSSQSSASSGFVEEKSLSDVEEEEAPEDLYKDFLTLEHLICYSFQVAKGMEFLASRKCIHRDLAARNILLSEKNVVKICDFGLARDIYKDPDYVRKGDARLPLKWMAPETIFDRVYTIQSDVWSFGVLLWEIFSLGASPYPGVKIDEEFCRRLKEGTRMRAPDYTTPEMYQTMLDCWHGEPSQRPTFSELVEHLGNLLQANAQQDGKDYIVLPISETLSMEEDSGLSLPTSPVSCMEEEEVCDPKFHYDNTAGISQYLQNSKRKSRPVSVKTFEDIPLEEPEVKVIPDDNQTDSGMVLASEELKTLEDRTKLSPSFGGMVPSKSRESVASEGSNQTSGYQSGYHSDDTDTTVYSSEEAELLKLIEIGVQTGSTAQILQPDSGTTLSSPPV

Structure (SMILES) | IC50 (EA.hy 926) [nM] | IC50 (Ephrin type-B receptor 4) [nM] | further results
c1ccc(-c2cn(Cc3ccc(-c4cccnc4)cc3)nn2)cc1 | 12100 |  | 
COc1ccc(-c2ccc(Cn3cc(-c4cccc(Cl)c4)nn3)cc2)cn1 | 440000 |  | 
COc1ccc(-c2ccc(Cn3cc(-c4ccc(C)cc4)nn3)cc2)cn1 | 678000 |  | 
Cc1ccc(-c2cn(Cc3ccc(-c4cccnc4)cc3)nn2)cc1 | 6490 |  | IC50 (Angiopoietin-1 receptor): > 1000 nM
COc1ccc(-c2ccc(Cn3cc(-c4ccc(C(F)(F)F)cc4)nn3)cc2)cn1 | 122000 | > 1000 | 
COc1ccc(-c2ccc(Cn3cc(-c4cccc(C)c4)nn3)cc2)cn1 | 43900 |  | IC50 (Angiopoietin-1 receptor): > 1000 nM
CNC(=O)c1cc(Oc2ccc(NC(=O)Nc3ccc(Cl)c(C(F)(F)F)c3)cc2)ccn1 [SORAFENIB] | 11700 |  | IC50 (A549): 80 nM; IC50 (MCF7): 90 nM; IC50 (SMMC-7721): 300 nM; IC50 (PANC-1): 150 nM; IC50 (A-431): 120 nM; IC50 (HeLa): 270 nM; IC50 (LoVo): 250 nM
COc1ccc(-c2ccc(Cn3cc(-c4cccc(N)c4)nn3)cc2)cn1 | 14500 |  | IC50 (A549): 180 nM; IC50 (MCF7): 350 nM; IC50 (SMMC-7721): 240 nM; IC50 (PANC-1): 490 nM; IC50 (A-431): 70 nM; IC50 (HeLa): 290 nM; IC50 (LoVo): 100 nM
FC(F)(F)c1cccc(-c2cn(Cc3ccc(-c4cccnc4)cc3)nn2)c1 | 137000 | > 1000 | IC50 [1]: > 1000 nM
Clc1cccc(-c2cn(Cc3ccc(-c4cccnc4)cc3)nn2)c1 | 431000 |  | 
Fc1ccccc1-c1cn(Cc2ccc(-c3cccnc3)cc2)nn1 | 9280 |  | 
Nc1cccc(-c2cn(Cc3ccc(-c4cccnc4)cc3)nn2)c1 | 24300 |  | 
COc1ccc(-c2ccc(Cn3cc(-c4ccccc4F)nn3)cc2)cn1 | 708000 |  | IC50 [1]: > 1000 nM
Cc1cccc(-c2cn(Cc3ccc(-c4cccnc4)cc3)nn2)c1 | 134000 | > 1000 | 
FC(F)(F)c1ccc(-c2cn(Cc3ccc(-c4cccnc4)cc3)nn2)cc1 | 170000 | > 1000 | IC50 (Angiopoietin-1 receptor): > 1000 nM
COc1ccc(-c2ccc(Cn3cc(-c4ccccc4)nn3)cc2)cn1 | 110000 | > 1000 | IC50 (Angiopoietin-1 receptor): > 1000 nM
